Experimental data as given in ChEMBL document CHEMBL2034964, “Investigation of the binding pocket of human hematopoietic prostaglandin (PG) D2 synthase (hH-PGDS): a tale of two waters” (Bioorg Med Chem Lett, 2012).

Tests used:
[1] = biological target: T1, Hematopoietic prostaglandin D synthase (Homo sapiens, UniProt O60760); assay: Inhibition of HPGDS
[2] = biological target: ERG (KCNH2 potassium channel) (Homo sapiens, UniProt Q12809); assay: Displacement of dofetilide from ERG at 10 uM; settings: probe dofetilide
[3] = system: Liver microsomes; assay: Half life in human liver microsomes; type: ADME, Microsome
[4] = system: Liver microsomes; assay: (§1) Metabolic stability in human liver microsomes assessed as compound remaining after 30 mins; type: ADME, Microsome; settings: microsomes, 0.5 h
[5] = biological target: T1, Hematopoietic prostaglandin D synthase; assay: Inhibition of human recombinant HPGDS using PGH2 as substrate assessed as production of PGD2 preincubated for 10 mins prior substrate addition measured after 42 secs by TBA-based fluorescence assay
[6] = as §1; type: ADME, Microsome; settings: liver microsomes, read-out: Stability

T1 sequence (O60760 whole entry): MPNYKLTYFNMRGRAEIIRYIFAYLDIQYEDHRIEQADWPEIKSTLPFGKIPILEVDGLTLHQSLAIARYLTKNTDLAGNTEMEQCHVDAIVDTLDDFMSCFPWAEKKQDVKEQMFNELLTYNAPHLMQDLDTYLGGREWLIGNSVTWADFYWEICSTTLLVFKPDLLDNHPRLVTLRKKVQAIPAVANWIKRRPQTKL
ERG (KCNH2 potassium channel), sequence (Q12809 whole entry): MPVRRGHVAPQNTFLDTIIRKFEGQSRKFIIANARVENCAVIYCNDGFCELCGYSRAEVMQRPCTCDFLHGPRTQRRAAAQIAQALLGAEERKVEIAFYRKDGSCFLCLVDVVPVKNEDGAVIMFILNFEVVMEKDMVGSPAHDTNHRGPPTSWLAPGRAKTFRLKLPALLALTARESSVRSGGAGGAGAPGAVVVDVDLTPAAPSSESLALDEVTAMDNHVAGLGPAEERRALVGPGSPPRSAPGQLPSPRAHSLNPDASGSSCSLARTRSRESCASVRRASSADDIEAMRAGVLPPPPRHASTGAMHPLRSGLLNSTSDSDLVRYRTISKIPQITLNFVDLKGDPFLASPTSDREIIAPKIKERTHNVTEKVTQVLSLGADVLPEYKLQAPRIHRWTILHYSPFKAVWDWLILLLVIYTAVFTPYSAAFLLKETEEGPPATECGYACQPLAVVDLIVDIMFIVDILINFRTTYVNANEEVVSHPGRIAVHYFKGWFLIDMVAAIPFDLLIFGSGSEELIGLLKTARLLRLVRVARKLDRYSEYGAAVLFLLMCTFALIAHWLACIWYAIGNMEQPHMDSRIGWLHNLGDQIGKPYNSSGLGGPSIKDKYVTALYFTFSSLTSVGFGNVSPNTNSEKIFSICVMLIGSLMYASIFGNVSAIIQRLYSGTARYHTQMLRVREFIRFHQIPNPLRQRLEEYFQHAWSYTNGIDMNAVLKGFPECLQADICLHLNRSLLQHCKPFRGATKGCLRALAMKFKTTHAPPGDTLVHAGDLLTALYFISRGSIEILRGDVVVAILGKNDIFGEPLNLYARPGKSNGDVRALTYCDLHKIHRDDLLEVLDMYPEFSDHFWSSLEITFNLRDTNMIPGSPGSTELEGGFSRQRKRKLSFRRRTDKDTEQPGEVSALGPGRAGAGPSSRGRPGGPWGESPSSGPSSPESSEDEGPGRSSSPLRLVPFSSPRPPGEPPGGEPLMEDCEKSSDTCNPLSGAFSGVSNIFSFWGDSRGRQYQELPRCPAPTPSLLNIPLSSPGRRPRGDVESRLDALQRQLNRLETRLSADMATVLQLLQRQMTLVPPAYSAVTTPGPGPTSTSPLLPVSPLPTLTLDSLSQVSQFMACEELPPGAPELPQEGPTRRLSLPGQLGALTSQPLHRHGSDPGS

| IC50 [1] [nM] | remaining at 0.5 h [6] [%] | SMILES | also measured |
| --- | --- | --- | --- |
| 0.2 |  | O=C(NC1CCN(CC(F)(F)F)CC1)c1ccc(-c2ccccc2)nc1 |  |
|  | 20 | O=C(NCCN1CCOCC1)c1ccc(-c2ccccn2)cc1 | IC50 [5]: 274 nM |

The next lines start with the compound.

| SMILES | IC50 [1] [nM] | remaining at 0.5 h [6] [%] | also measured |
| --- | --- | --- | --- |
| Cc1nc(-c2ccccc2)sc1C(=O)Nc1ccc(S(N)(=O)=O)cc1 | < 1 |  |  |
| COc1ccccc1N1CCN(C(=O)c2ccc[nH]2)CC1 | 6900 |  |  |
| O=C(Nc1ccc(N2CCN(C(=O)N3CCOCC3)CC2)cc1)c1cnc(Oc2ccccc2)nc1 | 280 |  |  |
| O=C(NCCN1CCOCC1)c1ccc(-c2nccc3ccccc23)cc1 |  |  | inhibition at 10 µM [2]: 3%; t1/2 [3]: 1 h; Stability [4]: 90% |
| Cc1cc2ccccc2c(-c2ccc(C(=O)NCCN3CCOCC3)cc2)n1 |  | 76 |  |
| O=C(NCCN1CCOCC1)c1ccc(-c2c(O)ccc3ccccc23)cc1 |  | 94 | IC50 [5]: 662 nM |
